Laboratory results published in patent US6878690B2, “Compounds and methods” (PharmAxis Pty Ltd., priority 2000, dated 2005).
“And” between values parts separate entries of the source, which are not always exact repeats. Equal entries are not always repeated.

Legend:
[1] = tested on: passively transferred EAE; assay: Passively transferred EAE induced with encephalitogenic MBP-specific T cell line (Example 23); format: in vivo, Lewis rats
Method: In order to study the effect of the agents of the present invention in vivo on a disease caused by T lymphocyte migration into a specific tissue, experiments were performed in the Lewis rat model of passively transferred EAE. Here, myelin basic protein (MBP)-specific T lymphocyte cell lines were generated from the draining lymph nodes of Lewis rats that had been immunised with MBP in Freund's complete adjuvant essentially according to the method of Ben-Nun et al. (1981) as described in Example 8. Thus, in this manner, donor T lymphocytes were generated from female 10 to 12 week old Lewis rats weighing 150 to 200 g. These rats were injected intradermally in a footpad of each hind foot with an emulsion of Guinea pig myelin basic protein (MBP; prepared according to the method of Deibler et al., 1972; incorporated herein by reference) in Freund's complete adjuvant (0.05 ml). The adjuvant emulsion was prepared by emulsifying equal volumes of a mixture of light mineral oil (Sigma) and normal saline containing Guinea pig myelin basic protein (0.5 mg/ml) and Mycobacterium butyricum (4 mg/ml; Difco). Thus, the total dose per rat was 50 micrograms of MBP and 400 micrograms of M. butyricum. Approximately 11 days following injection, the rats were euthanased and the draining lymph nodes (popliteal and inguinal) removed aseptically by blunt dissection and placed into mixed lymphocyte culture medium. This medium was prepared in the normal fashion from Dulbecco's Modified Eagle's Medium (DMEM; GIBCO, Grand Island, N.Y.) supplemented with glucose, folic acid, L-asparagine, sodium bicarbonate, L-glutamine, sodium pyruvate, HEPES, 2-mercaptoethanol (5×10^−5 M), penicillin, streptomycin, neomycin, and 2% fetal calf serum. A single cell suspension was prepared from the lymph nodes in the usual manner by gently pushing the nodes through a stainless steel screen. The cells were washed twice in the culture medium and following this procedure, any red blood cells were lysed in the usual manner by treating with a solution of ammonium chloride, EDTA and sodium hydrogen carbonate (pH 7.3) and the preparation strained (Falcon 2350 cell strainer). The cells were washed again in the lymphocyte culture medium. All cell preparative steps were performed on ice. These cells were cultured asceptically for 72 hours at 37° C. in a humidified atmosphere containing 7.5% carbon dioxide at a concentration of 5 million cells per milliliter in the presence of MBP (0.06 mg/ml). The cells were collected and the lymphoblasts were isolated by centrifugation on a Ficoll (Pharmacia, Uppsala, Sweden) gradient in an identical manner to that described by Ben Nun et al. (1981). The fraction containing ≧90% lymphoblasts was cultured and propagated in Eagle's medium supplemented with 15% of a concanavalin A-stimulated lymphocyte supernatant to provide growth factors, 10% fetal calf serum, nonessential amino acids (Bio-Lab, Jerusalem, Israel); sodium pyruvate, 2-mercapto ethanol and antibiotics without added antigen. The cells were plated in 100 mm petri dishes at a concentration of 0.2 million cells/ml and replated every 3 or 4 days. Prior to transfer into Lewis recipients, the cells were restimulated in the presence of MBP (0.01 mg/ml) and irradiated syngeneic thymocytes for 4 days.
These cells were highly encephalitogenic sine as few as 500,000 cells were capable of inducing disease when injected into naïve Lewis rats. Thus, in a typical experiment a group of 5 female Lewis rats, approximately 9 weeks old, weighing 110±15 grams were anesthetised with diethyl ether and implanted with mini-osmotic pumps (Alzet 2002, Alza Corp., Palo Alto Calif., USA) containing phosphoric acid mono-(6-propyl-3,4,5-trihydroxy-tetrahydro-pyran-2-ylmethyl) ester mono sodium salt dissolved in normal saline at a concentration that delivered the drug at a rate of 45 mg/kg/rat/day. […]

[2] = tested on: DTH response to 2,4-dinitrofluorobenzene (DNFB); assay: Delayed-type hypersensitivity (DTH) response to DNFB, ear swelling; format: in vivo, Balb/C mice
Description: In the present Example, a murine model of Type IV hypersensitivity or delayed-type hypersensitivity (DTH) response to cutaneous contact with the chemical hapten 2,4-dinitrofluorobenzene (DNFB) (Aldrich Chemical Company Inc, USA) was used as a model to measure the anti-inflammatory effects of compounds of the present invention. Specific pathogen-free 8-12 week old female Balb/C mice, weighing 19-21 g, were sensitised in a similar manner to that described by Klimuk et al., (Klimuk et al., 1999) by applying a solution of DNFB (0.5% in acetone:olive oil (4:1, v/v); 30 microliters,) onto a 2 cm^2 shaved area of the abdomen. After 7 days, the animals were anesthetised with diethyl ether and 8 microliters of DNFB (0.35% in acetone:olive oil (4:1, v/v) was applied to the dorsal and ventral surfaces of the right pinna. Prior to regaining consciousness, the mice were implanted intraperitoneally with Alzet 2001 mini-osmotic pumps (Alza Corp., Palo Alto Calif., USA) containing phosphoric acid mono-[6-(3-hexyloxy-propyl)-3,4,5-trihydroxy-tetrahydro-pyran-2-ylmethyl] ester, sodium salt in normal saline. The dose delivered was 50 mg/kg/day. Control animals for this group received saline delivered in identical mini-osmotic pumps. A second experimental group of mice received phosphoric acid mono-[3-(3,4,5-trihydroxy-6-phosphonooxymethyl-tetrahydro-pyran-2-yl)-propyl] ester disodium salt via one-week delivery Alzet 2001 mini-osmotic pumps implanted intraperitoneally. This compound was delivered at a dose of 40 mg/kg/day. Control animals for this group received saline delivered in identical mini-osmotic pumps. In a third experiment a separate group of mice received (3,4,5-trihydroxy-6-phosphonooxymethyl-tetrahydro-pyran-2-yl)-acetic acid disodium salt via one-week delivery Alzet 2001 mini-osmotic pumps that were placed intraperitoneally. This compound was delivered at 45 mg/kg/day. The control group for this experiment received identical mini-osmotic pumps containing normal saline. In a fourth experiment a group of mice received 3-phenyl-2-[2-(3,4,5-trihydroxy-6-phosphonooxymethyl-tetrahydro-pyran-2-yl)-acetylamino]-propionic acid monosodium salt via one-week delivery Alzet 2001 mini-osmotic pumps that were placed subcutaneously. This compound was delivered at 62 mg/kg/day. The control group for this experiment received identical mini-osmotic pumps containing normal saline. In a fifth experiment a group of mice received hexanoic acid 3-(3,4,5-trihydroxy-6-phosphonooxymethyl-tetrahydro-pyran-2-yl)-propyl ester sodium salt via one-week delivery Alzet 2001 mini-osmotic pumps that were placed subcutaneously. This compound was delivered at 40 mg/kg/day. The control group for this experiment received identical mini-osmotic pumps containing normal saline.
Twenty-four hours after challenge the mice were lightly anesthetised with diethyl ether and the thickness of the left and right pinnae measured (in millimeters) using a dial gauge micrometer (Interapid, Switzerland). Care was taken to measure only the outer two thirds of the ear. The increase in ear thickness initiated by the DTH response was determined by subtracting the measurement of the left ear (untreated) from the right ear (challenged).
In Table 4, values in the columns labeled Left and Right are measurements of ear thickness in millimeters of the control and challenged ears respectively.

[3] = tested on: passively transferred EAE; assay: Passively transferred EAE induced with concanavalin A stimulated spleen lymphoblasts (Example 24); format: in vivo, Lewis rats; set-up: key to Clinical score - Treated, Mean: 0 = asymptomatic to 5 = hind limb paralysis; settings: 50 mg/kg/day subcutaneously; for Clinical score - Treated, Mean: group mean; for Clinical score - Treated: individual rats, scale 0 to 5, monosodium salt, 50 mg/kg/day
Method: In a similar type of experiment outlined in Example 20, and in order to study the effect of the agents of the present invention in vivo on a disease caused by T lymphocyte migration into a specific tissue, further experiments were performed in a Lewis rat model of passively transferred EAE. Here, myelin basic protein (MBP)-specific T lymphocytes were generated in spleens of Lewis rats that had been immunised with guinea pig MBP in Freund's complete adjuvant. Thus, in this manner donor T lymphocytes were generated from male 12-20 week old Lewis rats weighing 200 to 250 g. These rats were injected intradermally in a footpad of each hind foot with an emulsion of guinea pig myelin basic protein (MBP; prepared according to the method of Deibler et al., 1972; incorporated herein by reference) in Freund's complete adjuvant (0.1 ml). The adjuvant emulsion was prepared by emulsifying equal volumes of a mixture of 85% light mineral oil (0.8417 g/mL (Sigma)) plus 15% mannide monooleate (Sigma) containing Mycobacterium butyricum (4 mg/ml; Difco) and normal saline containing guinea pig myelin basic protein (0.25 mg/ml). Thus, the total dose per rat was 25 micrograms of MBP and 400 micrograms of M. butyricum. Ten days following injection, the rats were euthanased and the spleens removed aseptically by blunt dissection and placed into mixed lymphocyte culture medium. This medium was prepared in the normal fashion from Dulbecco's Modified Eagle's Medium (DMEM; GIBCO, Grand Island, N.Y.) supplemented with glucose (4 g/L), folic acid (6 mg/L), L-asparagine (36 mg/L), sodium bicarbonate (2 g/L), L-arginine (116 mg/L), L-glutamine (2 mM), sodium pyruvate (1 mM), HEPES (10 mM), 2-mercaptoethanol (5×10^−5 M), penicillin, streptomycin, neomycin, and 10% fetal calf serum. A single cell suspension was prepared from the spleens in the usual manner by gently pushing them through a stainless steel screen. The cells were washed twice and cultured asceptically for 72 hours at 37° C. in a humidified atmosphere containing 5% carbon dioxide at a concentration of 2 million cells per milliliter in the presence of concanavalin A (2 microgram/mL). The cells were collected and washed twice in Hanks balanced salt solution. Cells were resuspended in Hanks balanced salt solution and each recipient animal (10-12 weeks old female Lewis rats; 160-180 g) received 40-42.5 million lymphoblasts by lateral tail vein injection in a volume of 0.5 ml.
In a typical experiment 4-5 recipient rats were anesthetised with diethyl ether and implanted with mini-osmotic pumps (Alzet 2001, Alza Corp., Palo Alto Calif., USA) containing the test compound. A second group of 4 animals, the control group, under ether anesthesia, were implanted with Alzet 2001 pumps containing normal saline. Mini-osmotic pumps were implanted three days after cell transfer. Disease severity (clinical score) was scored on an arbitrary scale of severity ranging from 0 to 5 as follows: 0, asymptomatic; 1, flaccid distal half of tail; 2, entire tail flaccid; 3, ataxia, difficulty in righting reflex; 4, hind limb weakness; 5, hind limb paralysis. Mean maximum clinical scores were calculated and the disease index (DI) for each group was calculated as described in Example 20. The results of these experiments are outlined in Tables 6, 7 and 8.

Compound: CCCC1OC(COP(=O)([O-])O)C(O)C(O)C1O.[Na+] (stereo not drawn) [phosphoric acid mono-(6-propyl-3,4,5-trihydroxy-tetrahydro-pyran-2-ylmethyl) ester mono sodium salt]
- drug-treated animals that developed disease ([1]; 45 mg/kg/rat/day, control group 5/5): 3/5
- lesions per section in the most affected animal ([1]; day 6 post lymphocyte transfer, histology): no more than 8 lesions per section
- average lesions (per section) in spinal cord ([1]; day 6 post lymphocyte transfer, histology, control approximately 15 lesions/section): 3.5 lesions
- Mean maximum clinical score ([1]; treated group, 45 mg/kg/rat/day, control group 2.0): 1.0
- disease index (DI) ([1]; treated group, 45 mg/kg/rat/day, control group DI 160): 40

Compound: CCCCCCOCCCC1OC(COP(=O)([O-])O)C(O)C(O)C1O.[Na+] (stereo not drawn) [phosphoric acid mono-[6-(3-hexyloxy-propyl)-3,4,5-trihydroxy-tetrahydro-pyran-2-ylmethyl] ester, monosodium salt]
- Mean percentage decrease in ear swelling in treated animals ([2]; 50 mg/kg/day intraperitoneally, versus saline controls): Mean percentage decrease in ear swelling in treated animals: 36.7%
- Mean Difference, Treated ([2]; group mean, 50 mg/kg/day intraperitoneally, saline control mean 0.098): 0.062 millimeters
- Difference (right minus left ear), Treated ([2]; individual mice, 50 mg/kg/day, mini-osmotic pump intraperitoneally, 24 hours after challenge, monosodium salt): 0.03 millimeters and 0.05 millimeters (2×) and 0.08 millimeters and 0.1 millimeters
- Right ear thickness, Treated ([2]; individual mice, challenged ear, 50 mg/kg/day, mini-osmotic pump intraperitoneally, 24 hours after challenge, monosodium salt): 0.25 millimeters (2×) and 0.26 millimeters and 0.3 millimeters and 0.32 millimeters
- Left ear thickness, Treated ([2]; individual mice, control (unchallenged) ear, 50 mg/kg/day, mini-osmotic pump intraperitoneally, 24 hours after challenge, monosodium salt): 0.22 millimeters (3×) and 0.21 millimeters and 0.2 millimeters
- Clinical score - Treated, Mean ([3]; day 5): 1
- Clinical score - Treated ([3]; day 5): 0.5 (2×) and 1 and 2
- Clinical score - Treated, Mean ([3]; day 6): 2.75
- Clinical score - Treated ([3]; day 6): 3 and 2 (2×) and 4
- Clinical score - Treated, Mean ([3]; day 7): 2.5
- Clinical score - Treated ([3]; day 7): 2 (3×) and 4
- Clinical score - Treated, Mean ([3]; day 8): 2.25
- Clinical score - Treated ([3]; day 8): 2 (3×) and 3
- Clinical score - Treated, Mean ([3]; day 9): 1.25
- Clinical score - Treated ([3]; day 9): 1 (2×) and 1.5 (2×)
- Clinical score - Treated, Mean ([3]; day 10): 0.5
- Clinical score - Treated ([3]; day 10): 0 (2×) and 1 (2×)
- Mean maximum clinical score ([3]; treated group, control 4.5): clinical score 3
- DI (disease index) ([3]; treated group, control DI 67.2): DI - 34.1 Mean maximum
